We go through two compounds from article PMC12615753, “Glutathione as a taste modulator: molecular mechanisms of interaction with umami and sweet taste receptors” (Food Chemistry: Molecular Sciences, 2025).

The test deals with T1, hTAS1R1 R277A/rTAS1R3 (Homo sapiens, UniProt Q7RTX1, R277A).
T1 construct: UniProtKB number Q7RTX1–1); expressed in transfected cells; host or cells: HEK293T/17 (ATCC CRL-11268)
T1 sequence (Q7RTX1 21-841 R277A): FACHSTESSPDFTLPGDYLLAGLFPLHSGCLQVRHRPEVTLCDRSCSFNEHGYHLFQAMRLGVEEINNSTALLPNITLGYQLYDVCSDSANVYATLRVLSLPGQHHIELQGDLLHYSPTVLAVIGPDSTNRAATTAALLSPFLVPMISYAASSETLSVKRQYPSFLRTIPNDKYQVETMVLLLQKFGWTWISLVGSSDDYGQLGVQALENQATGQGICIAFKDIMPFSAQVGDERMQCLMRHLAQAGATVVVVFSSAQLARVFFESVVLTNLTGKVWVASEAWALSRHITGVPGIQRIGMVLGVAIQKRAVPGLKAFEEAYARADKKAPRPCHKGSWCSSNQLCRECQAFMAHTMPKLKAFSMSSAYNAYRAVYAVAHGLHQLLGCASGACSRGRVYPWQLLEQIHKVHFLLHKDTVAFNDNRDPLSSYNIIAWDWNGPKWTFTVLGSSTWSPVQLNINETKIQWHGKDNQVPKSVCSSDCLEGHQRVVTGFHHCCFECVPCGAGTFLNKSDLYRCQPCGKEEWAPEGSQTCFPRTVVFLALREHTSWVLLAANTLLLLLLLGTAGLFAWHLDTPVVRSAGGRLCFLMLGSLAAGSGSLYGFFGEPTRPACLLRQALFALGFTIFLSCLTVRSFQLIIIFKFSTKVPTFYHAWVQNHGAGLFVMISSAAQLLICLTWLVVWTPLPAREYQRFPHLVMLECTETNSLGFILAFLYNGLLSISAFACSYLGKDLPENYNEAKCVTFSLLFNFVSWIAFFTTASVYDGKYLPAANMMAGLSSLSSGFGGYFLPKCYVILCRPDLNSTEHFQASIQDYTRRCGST
T1 sequence (Q923K1 21-858 partner): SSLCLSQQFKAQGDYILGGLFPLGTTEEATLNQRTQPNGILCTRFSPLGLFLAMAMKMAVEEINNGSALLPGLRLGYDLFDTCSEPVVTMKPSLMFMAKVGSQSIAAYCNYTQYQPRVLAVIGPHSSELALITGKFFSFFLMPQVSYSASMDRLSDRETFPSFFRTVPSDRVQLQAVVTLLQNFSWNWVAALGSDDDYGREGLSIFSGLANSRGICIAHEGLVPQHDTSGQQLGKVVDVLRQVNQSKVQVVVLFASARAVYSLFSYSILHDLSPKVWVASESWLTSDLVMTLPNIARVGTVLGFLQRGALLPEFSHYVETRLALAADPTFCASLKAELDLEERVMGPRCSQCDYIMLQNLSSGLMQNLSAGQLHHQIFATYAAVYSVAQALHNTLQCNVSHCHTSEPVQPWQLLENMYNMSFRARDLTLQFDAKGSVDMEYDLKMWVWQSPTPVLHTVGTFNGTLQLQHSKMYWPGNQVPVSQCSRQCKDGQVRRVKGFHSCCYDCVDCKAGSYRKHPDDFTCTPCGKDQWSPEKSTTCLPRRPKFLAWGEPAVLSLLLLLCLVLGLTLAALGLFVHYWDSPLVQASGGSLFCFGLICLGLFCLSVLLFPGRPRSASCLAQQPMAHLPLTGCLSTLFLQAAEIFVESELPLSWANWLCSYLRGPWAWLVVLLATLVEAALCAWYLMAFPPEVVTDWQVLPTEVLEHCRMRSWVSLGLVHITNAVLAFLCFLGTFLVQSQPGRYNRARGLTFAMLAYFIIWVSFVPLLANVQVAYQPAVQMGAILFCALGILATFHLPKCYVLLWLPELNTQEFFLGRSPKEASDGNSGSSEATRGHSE
Description: Calcium assay, hTAS1R1 mutant co-expressed with rTAS1R3. Type of test: cell-based, rat.

As a reminder, the EC50 is the concentration at which the effect is half-maximal. `N[C@@H](CCC(=O)N[C@@H](CS)C(=O)NCC(=O)O)C(=O)O` [GSH, γ-L-glutamyl-L-cysteinyl-glycine]: the EC50 is 1840 ± 174 µM. Under “R277A”, the “effect of the added compound (1 mM) on the response to L-Glu” value is “did not affect” and the “response to the agonist alone, vs WT” value was “significantly increased the initial amplitude”. Moreover, where the note is “R277A, GSH”, the “Max ∆F/F0” value came to 0.85 ± 0.02 and the “R1 = mutant EC50/WT EC50” value worked out at 0.7.

For `N[C@@H](CCC(=O)O)C(=O)O` [L-Glu, L-glutamic acid, reference compound], the “response to the agonist alone, vs WT” value (R277A) is “increased the amplitude”.
